Data set [1] is described as follows: Intrinsic clearance in human microsomes. It counts as ADME, Microsome.
The target of data set [2] is T1, fMet-Leu-Phe receptor (Homo sapiens, UniProt P21462).
T1 sequence (P21462 whole entry): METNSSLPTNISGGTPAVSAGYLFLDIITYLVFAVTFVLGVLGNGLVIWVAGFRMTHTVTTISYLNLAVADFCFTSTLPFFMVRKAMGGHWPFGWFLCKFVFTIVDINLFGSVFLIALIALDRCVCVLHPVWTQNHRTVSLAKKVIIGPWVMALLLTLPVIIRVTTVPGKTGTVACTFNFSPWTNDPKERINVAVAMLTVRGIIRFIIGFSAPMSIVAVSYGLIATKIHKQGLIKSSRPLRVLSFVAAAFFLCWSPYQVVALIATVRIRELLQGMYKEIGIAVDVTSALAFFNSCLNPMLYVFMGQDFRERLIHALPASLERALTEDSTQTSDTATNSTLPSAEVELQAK
As to the kind of experiment: Intrinsic activity at FPR1 in human neutrophils assessed as increase in calcium mobilization by FLIPR assay relative to fMLF. In kind it is functional. A general note: Calcium assays in cells follow changes in intracellular calcium, usually with a dye or a luminescent sensor.

For data set [3], the target named is T2, fMet-Leu-Phe receptor (Homo sapiens) (UniProt P21462).
T2 sequence (whole entry): T1 sequence (P21462 whole entry)
The experiment in a line: Antagonist activity at FPR1 in human neutrophils assessed as inhibition of fMLF-stimulated calcium mobilization at 50 uM by FLIPR assay. It counts as functional.

For data set [4], the target named is T1, fMet-Leu-Phe receptor. As to the kind of experiment: Antagonist activity at FPR1. It counts as functional.
In data set [5] the target is T3, C-X-C chemokine receptor type 2 (Homo sapiens) (UniProt P25025).
T3 sequence (whole entry): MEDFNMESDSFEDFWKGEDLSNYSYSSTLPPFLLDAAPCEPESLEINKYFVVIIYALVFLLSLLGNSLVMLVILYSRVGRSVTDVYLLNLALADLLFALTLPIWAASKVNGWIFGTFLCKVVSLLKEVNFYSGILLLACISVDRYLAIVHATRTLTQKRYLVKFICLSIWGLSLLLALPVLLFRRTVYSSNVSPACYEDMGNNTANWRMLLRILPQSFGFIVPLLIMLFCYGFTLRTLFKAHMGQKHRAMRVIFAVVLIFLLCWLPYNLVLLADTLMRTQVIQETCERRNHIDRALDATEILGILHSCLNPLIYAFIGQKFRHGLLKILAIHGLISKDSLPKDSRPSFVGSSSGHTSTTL
As to the kind of experiment: Antagonist activity at CXCR2 in human neutrophils assessed as inhibition of GROalpha-stimulated intracellular calcium mobilization at 50 uM by FLIPR assay. It counts as functional, cell-based.

For another data set, the system named is THP-1. As to the kind of experiment: Cytotoxicity against human THP1 cells assessed as cell viability after 24 hrs by Alamar blue assay. It counts as cell-based. The conditions noted are these: THP-1, 24 h. (In general: Alamar Blue is a resazurin reagent that responds to reducing activity.)
Data set [6] addresses T1, fMet-Leu-Phe receptor. As to the kind of experiment: Antagonist activity at FPR1 in human neutrophils assessed as inhibition of fMLF-stimulated calcium mobilization by FLIPR assay. In kind it is functional.
Data set [7] in a line: Antagonist activity at rat FPR1 expressed in HEK293 cells assessed as inhibition of fMLF-stimulated intracellular calcium mobilisation by FLIPR assay. It counts as functional, cell-based.
Data set [8] concerns the target T4, fMet-Leu-Phe receptor (Mus musculus) (UniProt P33766).
T4 sequence (whole entry): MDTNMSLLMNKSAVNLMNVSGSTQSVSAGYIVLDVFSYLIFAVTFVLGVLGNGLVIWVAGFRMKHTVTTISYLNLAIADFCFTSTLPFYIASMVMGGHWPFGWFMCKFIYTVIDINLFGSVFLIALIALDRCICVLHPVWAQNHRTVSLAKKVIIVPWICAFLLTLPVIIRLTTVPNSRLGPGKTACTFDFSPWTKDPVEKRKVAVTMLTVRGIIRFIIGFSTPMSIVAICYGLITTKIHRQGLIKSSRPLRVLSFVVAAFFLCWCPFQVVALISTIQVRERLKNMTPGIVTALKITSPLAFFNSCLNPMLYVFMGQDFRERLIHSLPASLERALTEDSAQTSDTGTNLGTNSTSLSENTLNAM
As to the kind of experiment: Antagonist activity at mouse FPR1 expressed in HEK293 cells assessed as inhibition of fMLFF-stimulated intracellular calcium mobilisation at 50 uM by FLIPR assay. It counts as functional, cell-based.

Data set [9] deals with T5, N-formyl peptide receptor 2 (Homo sapiens) (UniProt P25090).
T5 sequence (whole entry): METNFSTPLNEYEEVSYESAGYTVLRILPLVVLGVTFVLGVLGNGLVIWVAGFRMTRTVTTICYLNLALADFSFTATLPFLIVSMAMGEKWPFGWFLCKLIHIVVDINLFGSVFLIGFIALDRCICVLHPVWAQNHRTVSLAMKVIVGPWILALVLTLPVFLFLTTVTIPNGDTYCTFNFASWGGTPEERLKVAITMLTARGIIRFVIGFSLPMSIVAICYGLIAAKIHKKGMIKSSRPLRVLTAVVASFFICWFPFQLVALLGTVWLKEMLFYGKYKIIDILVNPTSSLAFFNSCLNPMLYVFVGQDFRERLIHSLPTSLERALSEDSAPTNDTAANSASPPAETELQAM
The experiment in a line: Antagonist activity at FPR2 in human neutrophils assessed as inhibition of SHHGtide-stimulated intracellular calcium mobilisation at 50 uM by FLIPR assay. In kind it is functional, cell-based.

The target of data set [10] is T6, C5a anaphylatoxin chemotactic receptor 1 (Homo sapiens) (UniProt P21730).
T6 sequence (whole entry): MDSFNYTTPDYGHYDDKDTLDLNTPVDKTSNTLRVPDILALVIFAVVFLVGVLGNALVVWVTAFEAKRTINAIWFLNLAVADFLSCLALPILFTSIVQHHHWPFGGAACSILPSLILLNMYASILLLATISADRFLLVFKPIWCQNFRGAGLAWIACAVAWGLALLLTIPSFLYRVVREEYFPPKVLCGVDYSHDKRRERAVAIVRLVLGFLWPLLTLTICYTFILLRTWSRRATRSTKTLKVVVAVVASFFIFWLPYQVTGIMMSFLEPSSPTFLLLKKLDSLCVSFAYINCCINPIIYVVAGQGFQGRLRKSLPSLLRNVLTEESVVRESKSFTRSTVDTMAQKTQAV
The experiment in a line: Antagonist activity at C5aR in human neutrophils assessed as inhibition of C5a-stimulated intracellular calcium mobilization at 50 uM by FLIPR assay. In kind it is functional, cell-based.

For data set [11], the target named is T1, fMet-Leu-Phe receptor. The experiment in a line: Displacement of [3H]fMLF from human FPR1 expressed in CHO cells by scintillation counting. In kind it is cell-based.
In data set [12] the target is T2, fMet-Leu-Phe receptor (Homo sapiens). As to the kind of experiment: Reversible inhibition of FPR1 in human neutrophils assessed as inhibition of fMLF-stimulated calcium mobilisation by FLIPR assay. It counts as functional.
Data set [13] has the same target. The experiment in a line: Antagonist activity at FPR1 in human neutrophils assessed as inhibition of PMA-stimulated neutrophil degranulation after 15 mins by fluorescence assay. It counts as functional.
The target is the same in data set [14]. As to the kind of experiment: Agonist activity at FPR1 in human neutrophils assessed as increase in calcium mobilization at 50 uM by FLIPR assay. In kind it is functional.
Data set [15] has as its target T1, fMet-Leu-Phe receptor. The experiment in a line: Antagonist activity at human FPR1 in expressed in HEK293 cells assessed as inhibition of fMLF-stimulated intracellular calcium mobilisation after 5 mins by FLIPR assay. In kind it is functional, cell-based.
Data set [16] in a line: Solubility of the compound in 0.1 M phosphate buffer. In kind it is physicochemical.
Data set [17] deals with T1, fMet-Leu-Phe receptor. As to the kind of experiment: Antagonist activity at FPR1 in human neutrophils assessed as inhibition of fMLF-stimulated degranulation after 15 mins by fluorescence assay. In kind it is functional.
Data set [18] addresses T2, fMet-Leu-Phe receptor (Homo sapiens). As to the kind of experiment: Agonist activity at FPR1 in human neutrophils assessed as increase in calcium mobilization by FLIPR assay. In kind it is functional. Details: concentration or dose not given beside the values. Conditions: concentration not given here.

≈ marks a conversion by molar mass, not a printed value. Calls of active or inactive are those of the source. No cut-off for these calls is given here.

A word on the microsomal CLint: it is the capacity of the preparation to metabolise the compound, expressed as a volume cleared per time. As a reminder, the IC50 is the point on the concentration scale where inhibition reaches its midpoint. Broadly, the inhibition is the relative decrease from the control value, in per cent. By Ki is commonly meant the dissociation constant of the complex between target and ligand, obtained from inhibition or displacement. What is called solubility is the dissolved amount per volume that the medium holds.

`CCOc1ccc2oc(C(=O)NC(CS(C)(=O)=O)c3nc4ccccc4[nH]3)c(C)c2c1` (stereo not given) gave a microsomal CLint in data set [1] of 3 µL/min/mg. In addition, the IC50 on fMet-Leu-Phe receptor [2] is 10 µM.

Consider `COc1ccccc1C(=O)NC(C(=O)Nc1c(C)cccc1C)c1ccc(Cl)cc1` (stereo not given), for which, in data set [3], the inhibition is below 25%.

At fMet-Leu-Phe receptor [4], `CCc1cc2c(=O)c(-c3nc4ccccc4n3C)c(C)oc2cc1OC(C)=O` showed a Ki of 0.1 µM.

Regarding `Cc1cccc(C(NC(=O)c2ccccc2O)C(=O)Nc2c(C)cccc2C)c1C` (stereo not given), the IC50 on fMet-Leu-Phe receptor [2] is 0.0794 µM.

`CCOc1ccc2oc(C(=O)N[C@H](CSC)c3nc4ccccc4[nH]3)c(C)c2c1`: the IC50 on fMet-Leu-Phe receptor [2] was 0.631 µM.

`CSCCC(NC(=O)c1oc2ccccc2c1C)c1nc2ccccc2[nH]1` (stereo not given): on fMet-Leu-Phe receptor [2], the IC50 was 3.98 µM.

`CSCCC(NC(=O)c1ccc(C)cc1)c1nc2ccccc2[nH]1` (stereo not given): the IC50 on fMet-Leu-Phe receptor [2] is 10 µM.

For the compound `Cc1cccc(C)c1NC(=O)C(NC(=O)c1ccccc1O)c1ccc(Cl)cc1` (stereo not given), the IC50 at fMet-Leu-Phe receptor [2] is 0.794 µM.

With `CCOc1ccc2oc(C(=O)N[C@@H](CSC)c3nc4ccccc4[nH]3)c(C)c2c1`, the IC50 at fMet-Leu-Phe receptor [2] was above 25.1 µM.

For `Cc1ccccc1C(=O)NC(C(=O)Nc1c(C)cccc1C)c1ccc(Cl)cc1` (stereo not given), the inhibition in data set [3] was below 25%.

As for `CSCCC(NC(=O)c1ocnc1C)c1nc2ccccc2[nH]1` (stereo not given), the IC50 on fMet-Leu-Phe receptor [2] was 10 µM.

As for `CCOc1ccc2oc(C(=O)NC(CCSC)c3nc4ccccc4[nH]3)c(C)c2c1` (stereo not given), the inhibition in data set [5], in data set [8], in [9], in data set [10], in [13] and in [14] was below 25% each time. In addition, the IC50 is 100 µM in the data set on THP-1; 0.501 µM on fMet-Leu-Phe receptor [6]; 10 µM in data set [7]; 0.501 µM on fMet-Leu-Phe receptor [2]; 0.0316 µM at fMet-Leu-Phe receptor [11]; 3.16 µM on fMet-Leu-Phe receptor [15]. Further, the IC50 at fMet-Leu-Phe receptor [17] is 0.158 µM. For the same compound, the inhibition result in data set [12] was “Active”. In addition, the concentration in solution in data set [16] (solubility) was 17 µM (≈ 7.2 µg/mL).

`CSCCC(NC(=O)c1occc1C)c1nc2ccccc2[nH]1` (stereo not given): the IC50 on fMet-Leu-Phe receptor [2] was 3.98 µM.

As for `Cc1cccc(C)c1NC(=O)C(NC(=O)c1ccccc1O)c1cn(C)cn1` (stereo not given), the IC50 at fMet-Leu-Phe receptor [2] is 1.58 µM.

In the case of `CCC[C@H](NC(=O)c1oc2ccc(OCC)cc2c1C)c1nc2ccccc2[nH]1`, the IC50 on fMet-Leu-Phe receptor [2] is 1 µM.

With `CCOc1ccc2oc(C(=O)NC(CCSC)c3nc4ncccc4[nH]3)c(C)c2c1` (stereo not given), in data set [18], the inhibition is below 25%.

As to `CSCCC(NC(=O)c1ccccc1)c1nc2ccccc2n1Cc1ccccc1` (stereo not given), the inhibition in data set [18] is below 25%. Moreover, the IC50 at fMet-Leu-Phe receptor [2] was 2.51 µM.

With `O=C(NC(C(=O)NC1CCCCC1)c1ccc(Cl)cc1)c1ccccc1O` (stereo not given), the 50% inhibitory concentration (IC50) on fMet-Leu-Phe receptor [2] is 2.51 µM.

Compound `CC(C)C(C(=O)O)N1C(=O)/C(=C2/C(=O)N(C)c3ccccc32)SC1=S` (stereo not given) showed an IC50 on fMet-Leu-Phe receptor [4] of 5.01 µM.
